# Values joined by “and” are separate entries in the source; they are usually repeats but may differ in a detail not shown here. Equal values may be shown once. Read-outs that look alike come from different tables or passages of the source.
# Key:
# [1] = system: Ebola virus; conditions: in vivo
# [2] = molecular target: T1, (CAT B) CATHEPSIN B (Homo sapiens, UniProt P07858); conditions: cited from earlier work
# [3] = molecular target: T1, (CAT B) CATHEPSIN B; assay type: biochemical
# [4] = molecular target: TNF ALPHA (Homo sapiens, UniProt P01375); conditions: cited from earlier work
# [5] = in vivo; cited from earlier work
# [6] = system: E[…]
# [7] = in vivo, cited from earlier work
# [8] = system: α-glucosidase
# [9] = system: Ebolavirus Sudan Gulu; assay type: cell-based
# [10] = in vivo
# [11] = molecular target: T2, GLP (Homo sapiens, UniProt Q9H9B1); conditions: cited from earlier work
# T2 sequence (Q9H9B1 1-1298): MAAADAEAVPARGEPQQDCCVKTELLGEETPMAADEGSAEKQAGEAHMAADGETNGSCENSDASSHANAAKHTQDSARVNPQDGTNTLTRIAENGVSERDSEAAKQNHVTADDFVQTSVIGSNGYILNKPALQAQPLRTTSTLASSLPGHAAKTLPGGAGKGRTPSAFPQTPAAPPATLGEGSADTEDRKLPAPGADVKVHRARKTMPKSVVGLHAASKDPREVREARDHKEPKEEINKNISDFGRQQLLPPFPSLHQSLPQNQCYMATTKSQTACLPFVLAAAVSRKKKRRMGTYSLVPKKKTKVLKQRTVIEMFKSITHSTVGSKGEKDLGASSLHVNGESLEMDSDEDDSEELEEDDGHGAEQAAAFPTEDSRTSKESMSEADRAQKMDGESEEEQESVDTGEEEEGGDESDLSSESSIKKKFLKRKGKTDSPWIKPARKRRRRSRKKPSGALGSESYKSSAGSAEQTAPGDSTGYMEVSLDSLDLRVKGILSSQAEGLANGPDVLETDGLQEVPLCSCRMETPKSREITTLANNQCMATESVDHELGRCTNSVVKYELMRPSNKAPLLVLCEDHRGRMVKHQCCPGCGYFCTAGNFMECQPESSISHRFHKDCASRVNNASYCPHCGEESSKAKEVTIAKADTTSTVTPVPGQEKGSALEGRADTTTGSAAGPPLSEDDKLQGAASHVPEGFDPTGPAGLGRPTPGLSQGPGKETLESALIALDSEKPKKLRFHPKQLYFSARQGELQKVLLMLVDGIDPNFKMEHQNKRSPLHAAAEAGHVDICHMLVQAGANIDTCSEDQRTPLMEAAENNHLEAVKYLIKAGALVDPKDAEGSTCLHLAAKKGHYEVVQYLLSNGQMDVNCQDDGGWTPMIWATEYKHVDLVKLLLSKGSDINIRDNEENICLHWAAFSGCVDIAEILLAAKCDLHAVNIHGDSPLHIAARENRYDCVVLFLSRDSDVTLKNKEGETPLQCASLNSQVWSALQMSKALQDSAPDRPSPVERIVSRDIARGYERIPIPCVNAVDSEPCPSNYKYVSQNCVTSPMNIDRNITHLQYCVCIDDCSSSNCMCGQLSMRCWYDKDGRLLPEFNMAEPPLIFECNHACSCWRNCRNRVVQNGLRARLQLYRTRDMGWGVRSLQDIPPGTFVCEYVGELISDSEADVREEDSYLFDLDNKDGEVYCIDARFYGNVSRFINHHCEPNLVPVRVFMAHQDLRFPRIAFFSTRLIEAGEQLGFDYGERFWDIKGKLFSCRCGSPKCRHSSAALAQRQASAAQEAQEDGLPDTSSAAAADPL
# [12] = system: MCF7 cells; conditions: cited from earlier work
# [13] = system: folate; conditions: cited from earlier work
# [14] = system: COLLAGEN; conditions: cited from earlier work
# [15] = molecular target: S-ADENOSYL HO[…] (SAHH) (Homo sapiens, UniProt P23526); conditions: cited from earlier work
# [16] = system: G9a/GLP-mediated dimethylation of histone 3 on lysine 9; conditions: cited from earlier work
# [17] = mouse, in vivo; cited from earlier work
# Sequence of TNF ALPHA (P01375 whole entry, species assumed): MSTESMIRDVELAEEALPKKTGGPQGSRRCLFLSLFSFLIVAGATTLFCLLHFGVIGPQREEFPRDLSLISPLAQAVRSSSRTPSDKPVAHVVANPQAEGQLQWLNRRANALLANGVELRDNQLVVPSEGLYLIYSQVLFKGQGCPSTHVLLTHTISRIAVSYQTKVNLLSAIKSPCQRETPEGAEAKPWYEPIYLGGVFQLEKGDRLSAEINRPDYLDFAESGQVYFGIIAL
# Sequence of S-ADENOSYL HO[…] (SAHH) (P23526 whole entry, species assumed): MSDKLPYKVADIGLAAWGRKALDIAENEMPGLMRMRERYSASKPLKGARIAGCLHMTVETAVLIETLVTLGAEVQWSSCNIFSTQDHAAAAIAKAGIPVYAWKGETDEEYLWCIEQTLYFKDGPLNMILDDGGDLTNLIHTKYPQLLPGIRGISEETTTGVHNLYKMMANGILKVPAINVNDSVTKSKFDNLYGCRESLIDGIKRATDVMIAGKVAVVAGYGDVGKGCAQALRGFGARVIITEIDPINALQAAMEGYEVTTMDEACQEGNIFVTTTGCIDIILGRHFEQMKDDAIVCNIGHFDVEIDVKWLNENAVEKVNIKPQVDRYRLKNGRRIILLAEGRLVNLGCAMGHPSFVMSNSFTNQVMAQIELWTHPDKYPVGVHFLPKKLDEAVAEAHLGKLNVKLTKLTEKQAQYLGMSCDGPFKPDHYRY
molecule,measurement,setting,value
C[C@H]1[C@H](C)CC[C@]2(C(=O)O)CC[C@]3(C)C(=CC[C@@H]4[C@@]5(C)CC[C@H](O)C(C)(C)[C@@H]5CC[C@]43C)[C@H]12 [BETA-URSOLIC ACID],residual viral load after the product (sequential),[1],12500 pfu/ml
same,IC50,[2],10 µM
CC1(C)CC[C@]2(C(=O)O)CC[C@]3(C)C(=CC[C@@H]4[C@@]5(C)CC[C@H](O)C(C)(C)[C@@H]5CC[C@]43C)[C@@H]2C1 [BETA-OLEANOLIC ACID],residual viral load after the product (sequential),[1],1875 pfu/ml
same,ED50,[3],0.004 g
same,IC50,[2],9 µM
COc1cc(/C=C/C(=O)CC(=O)/C=C/c2ccc(O)c(OC)c2)ccc1O [CURCUMIN],ED50,[4],29 to 60 mg/kg
same,residual viral load after the product (sequential),[1],25000 pfu/ml
O=c1c(O)c(-c2ccc(O)cc2)oc2cc(O)cc(O)c12 [Kaemferol],LD50,[5],2170 mg/kg
Nc1ncnc2c1ncn2[C@@H]1O[C@H](COP(=O)(O)O)[C@@H](O)[C@H]1O [ADENOSINE MONOPHOSPHATE],LD50,[5],2900 mg/kg
N[C@@H](CCS)C(=O)O [HOMOCYSTEINE],ED50,[6],0.4725 g
O=C1O[C@H]([C@@H](O)CO)C(O)=C1O [VITAMIN C],ED50,[4],29 to 60 mg/kg
same,residual viral load after the product (sequential),[1],50000 pfu/ml
same,LD50,[5],"11,900 mg/kg"
CCCCN1C[C@H](O)[C@@H](O)[C@H](O)[C@H]1CO [N-B-DEOXYNOJIRIMYCIN],Residual estimated viral load,[1],10^7 pfu/ml
same,LD50,"[7]; rat, po","LD50 1,300 mg mg kg-1"
same,ED50,[8],32.85 mg
NC(=O)c1ncn([C@@H]2O[C@H](CO)[C@@H](O)[C@H]2O)n1 [ribovirin],Molarity at last dilution,[9],25 µM
CC(C)N(C[C@H]1O[C@@H](n2cnc3c(N)ncnc32)[C@H](O)[C@@H]1O)C1CC(CCc2nc3ccc(C(C)(C)C)cc3[nH]2)C1 (stereo partly drawn) [EPZ-5676],Molarity at last dilution,[9],0.4 µM
O=c1c(O)c(-c2ccc(O)c(O)c2)oc2cc(O)cc(O)c12 [QUERCETIN],residual viral load after the product (sequential),[1],469 pfu/ml
same,Oral LD50,"[7]; rat, po",(rat): 161 mg/kg
same,LD50,[10],11.27 g
same,ED50,[3],0.03 g
same,IC50,[2],11 µM
[O]=[V]([O-])([O-])[O-] [VANADATE],residual viral load after the product (sequential),[1],212 pfu/ml
COc1cc2c(NC3CCN(C4CCCCC4)CC3)nc(N3CCCN(C(C)C)CC3)nc2cc1OCCCN1CCCCC1 [UNC0646],IC50,[11],0.015 µM
same,EC50,[12],4.7 µM
epigallocatechin-3 gallate [EGCG],residual viral load after the product (sequential),[1],106 pfu/ml
same,IC50,[13],34.8 µM
CC(C)N(CCCNC(=O)Nc1ccc(C(C)(C)C)cc1)C[C@H]1O[C@@H](n2ccc3c(N)ncnc32)[C@H](O)[C@@H]1O [EPZ004777],Rat LD50,[7],590 mg/kg
NC(CCSCCCCC(=O)O)C(=O)O (stereo not drawn) [s-carboxybutyl DL homocysteine],LD50,[5],500 mg/kg
"Nc1nccc2c1ncn2[C@@H]1O[C@H](CO)[C@@H](O)[C@H]1O [CA-C3-ADO, 3-deaza-adenosine]",Molarity at last dilution,[9],200 µM
N=C(N)NCCC[C@H](N)C(=O)O [Arginine],ED50,[14],2.5 g
OC[C@H]1O[C@@H](n2cnc3c(O)ncnc32)[C@H](O)[C@@H]1O [INOSINE],ED50,[15],29 to 60 mg/kg
NCCC[C@H](N)C(=O)O [Ornithine],ED50,[14],3.5 g
COc1cc2c(NC3CCN(CC4CCCCC4)CC3)nc(N3CCCN(C(C)C)CC3)nc2cc1OCCCN1CCCCC1 [UNC0631],IC50,[16],0.004 µM
same,LD50,[5],2 mg/kg
CC(C)N(CCCNC(=O)Nc1ccc(C(C)(C)C)cc1)C[C@H]1O[C@@H](n2cc(Br)c3c(N)ncnc32)[C@H](O)[C@@H]1O [SGC 0946],Rat LD50,[7],590 mg/kg
same,LD50,[10],41.3 g
Nc1nccc2c1ncn2[C@@H]1C=C(CO)[C@@H](O)[C@H]1O [3-DEAZANEPLANOCIN A],Residual estimated viral load,[1],10^5 pfu/ml and 10^7 pfu/ml and 10^8 pfu/ml
COc1c(C)c2c(c(O)c1C/C=C(\C)CCC(=O)O)C(=O)OC2 [Mycophenolic acid],Residual estimated viral load,[1],2 × 10^6 pfu/ml
COc1ccc2cc3[n+](cc2c1OC)CCc1cc2c(cc1-3)OCO2 [BERBERINE],residual viral load after the product (sequential),[1],235 pfu/ml
same,LD50,[10],2072 g
same,ED50,[3],0.185 g/day
same,Oral LD50,[17],"(mouse): >29,586 mg/kg"
same,IC50,[2],550 µM
